These results are taken from US7183299B2 (priority 2001, dated 2007).

The test system of assay [1] is downy mildew (Plasmopara viticola) on grape. The settings on record: in vivo.
In assay [2] the test system is late blight on tomato. Format: in vivo, Plasmopara viticola. The settings on record: tomato (Hofuku), therapeutic effect, sprayed after inoculation, active ingredient 100 ppm, disease severity 7 days after inoculation.

With “(Z)-(1-methyltetrazol-5-yl)phenylmethanoneoxime 0-(2-(n-pentyloxycarbonylamino)thiazol-4-yl)methyloxime [(4)-9]”, the “Control value (%)” value came out at 80% in assay [1] and 100% in assay [2].
`Cn1nnnc1C(=NOCc1csc(NC(=O)C(C)(C)C)n1)c1ccccc1` [(2)-11]: the “Control value (%)” value in assay [1] and in assay [2] was 100% each time.
Turning to `CCCCOC(=O)Nc1cccc(CON=C(c2ccccc2)n2nnnc2C)n1` [(13)-5], the “Control value (%)” value worked out at 70% in assay [1] and 90% in assay [2].
For the compound `CCCCC(=O)Nc1cccc(CON=C(c2ccccc2)n2nnnc2C)n1` [(11)-8], the “Control value (%)” value in assay [1] and in assay [2] was 100% each time.
For `CCOC(=O)Nc1cccc(CON=C(c2ccccc2)c2nnnn2C)n1` [(3)-2], the “Control value (%)” value came to 70% in assay [1] and 90% in assay [2].
With `CCCCOC(=O)Nc1nc(CON=C(c2ccccc2)n2nnnc2C)cs1` [(14)-5], the “Control value (%)” value amounted to 70% in assay [1] and 80% in assay [2].
The like results for `CCCCC(=O)Nc1cccc(CON=C(c2ccccc2)c2nnnn2C)n1` [(1)-8] were, in that order, 70% and 90%.
The matching figures for `Cc1nnnn1C(=NOCc1cccc(NC(=O)C(C)(C)C)n1)c1ccccc1` [(11)-11]: 70% and 80%.
Consider `CCCCCCCOC(=O)Nc1cccc(CON=C(c2ccccc2)c2nnnn2C)n1` [(3)-16], for which the “Control value (%)” value in assay [1] and in assay [2] was 100% each time.
With `CCCCCOC(=O)Nc1cccc(CON=C(c2ccc(C)cc2)c2nnnn2C)n1` [(9)-5], the “Control value (%)” value in assay [1] and in assay [2] was 100% throughout.
`Cn1nnnc1C(=NOCc1csc(NC(=O)C(C)(C)C)n1)c1cccc(F)c1` [(8)-7]: the figures for the “Control value (%)” value in assay [1] and in assay [2] were 70% and 80%, respectively.
In the case of `CCCOC(=O)Nc1cccc(CON=C(c2cccc(F)c2)c2nnnn2C)n1` [(9)-6], the “Control value (%)” value in assay [1] is on record as 70%; in assay [2] it was 100%.
Regarding `Cc1nnnn1C(=NOCc1csc(NC(=O)C(C)C)n1)c1ccccc1` [(12)-7], the “Control value (%)” value in assay [1] worked out at 90%; in assay [2], 100%.
The like results for `Cn1nnnc1C(=NOCc1cccc(NC(=O)C2CC2)n1)c1ccccc1` [(1)-21] were, in that order, 70% and 90%.
Turning to `Cn1nnnc1C(=NOCc1cccc(NC(=O)C2CC2)n1)c1ccc(Cl)cc1` [(7)-3], the “Control value (%)” value in assay [1] and in assay [2] was 80% each time.
Take `CCCCOC(=O)Nc1cccc(CON=C(c2ccc(OC)cc2)n2nnnc2C)n1` [(19)-23]: the “Control value (%)” value in assay [1] amounted to 70%; in assay [2], 80%.
With `CC(C)OC(=O)Nc1cccc(CON=C(c2ccc(F)cc2)c2nnnn2C)n1` [(9)-2], the entries for the “Control value (%)” value in assay [1] and in assay [2] were 70% and 80%, respectively.
The like results for `CCOCC(=O)Nc1nc(CON=C(c2ccccc2)c2nnnn2C)cs1` [(6)-2] were, in that order, 70% and 80%.
As to `CCCC(=O)Nc1cccc(CON=C(c2ccccc2)n2nnnc2C)n1` [(11)-6], the figures for the “Control value (%)” value in assay [1] and in assay [2] were 70% and 80%, respectively.
For `Cc1nnnn1C(=NOCc1cccc(NC(=O)OC(C)(C)C)n1)c1cccc(F)c1` [(19)-1], the “Control value (%)” value in assay [1] and in assay [2] was 100% throughout.
Regarding `CC(C)C(=O)Nc1nc(CON=C(c2ccc(Cl)cc2)c2nnnn2C)cs1` [(8)-2], the “Control value (%)” value is reported as 70% in assay [1] and 90% in assay [2].
With `CCCCOC(=O)Nc1cccc(CON=C(c2ccc(CC)cc2)n2nnnc2C)n1` [(19)-34], the “Control value (%)” value in assay [1] was 80%; in assay [2] it was 100%.
Regarding `Cc1nnnn1C(=NOCc1cccc(NC(=O)C2CC2)n1)c1ccccc1` [(11)-21], the “Control value (%)” value in assay [1] is listed as 70%; in assay [2], 90%.
The like results for `Cc1nnnn1C(=NOCc1csc(NC(=O)OC(C)(C)C)n1)c1cccc(F)c1` [(20)-1] were, in that order, 70% and 80%.
As for `CCCC(=O)Nc1cccc(CON=C(c2ccccc2)c2nnnn2C)n1` [(1)-6], the “Control value (%)” value was 70% in assay [1] and 90% in assay [2].
The like results for `Cn1nnnc1C(=NOCc1cccc(NC(=O)c2ccccc2)n1)c1ccccc1` [(5)-14] were, in that order, 90% and 100%.
The like results for `CCCC(=O)Nc1nc(CON=C(c2ccc(Cl)cc2)n2nnnc2C)cs1` [(18)-1] were, in that order, 100% and 100%.
As for `CCC(C)(C)OC(=O)Nc1cccc(CON=C(c2ccc(C)cc2)c2nnnn2C)n1` [(9)-9], the “Control value (%)” value in assay [1] and in assay [2] was 100% each time.
`CCCCCOC(=O)Nc1cccc(CON=C(c2ccc(S(C)(=O)=O)cc2)n2nnnc2C)n1` [(19)-28]: the “Control value (%)” value in assay [1] and in assay [2] was 100% each time.
Take `CCCCCC(=O)Nc1nc(CON=C(c2ccccc2)c2nnnn2C)cs1` [(2)-12]: the “Control value (%)” value in assay [1] came out at 90%; in assay [2], 100%.
The matching figures for `CC(C)C(=O)Nc1cccc(CON=C(c2ccccc2)c2nnnn2C)n1` [(1)-7]: 100% and 100%.
Consider `CCCC(=O)Nc1cccc(CON=C(c2ccc(Cl)cc2)n2nnnc2C)n1` [(17)-1], for which the “Control value (%)” value in assay [1] and in assay [2] was 100% each time.
